Data reported in PMC11009625, “Antibiotic class with potent in vivo activity targeting lipopolysaccharide synthesis in Gram-negative bacteria” (Proceedings of the National Academy of Sciences of the …, 2024).
In brackets after ≈: the same amount, converted by molar mass. Read-outs that look alike come from different tables or passages of the source.

Legend:
[1] = test system: P. mirabilis ATCC 7002 and tolC::Tn5-kan2 EN1490; test: MIC, P. mirabilis laboratory strains; assay type: cell-based; conditions: Proteus mirabilis
Experimental: (§1) Minimum inhibitory concentration (MIC) values were determined according to the Clinical Laboratory Standards Institute guidelines. Frequency of resistance was determined by plating ~5 × 10^8 bacterial cells on agar-solidified media plates containing test compound at concentrations corresponding to four times the measured solid-media MIC of the strains. Colonies were counted after 24 h, restreaked onto media containing the same concentration of compound, and the MIC remeasured against the assayed compound. Genomic DNA from isolated clones was sequenced by paired-end sequencing on an Illumina MiSeq device. Complete experimental details available in SI Appendix. […]
(§2) Minimum inhibitory concentration (MIC) determination. Broth microdilution and agar dilution MIC assays were conducted according to CLSI guidelines (M07-2012). Appropriate inoculation suspension density was assessed using a Sensititre Nephelometer with a Sensititre 0.5 […]
(§3) McFarland Standard. […]
Strain construction. The efflux-defective P. mirabilis strain EN1490 was constructed using EZ-Tn5 <KAN-2> Transposome mutagenesis with TypeOne Restriction Inhibitor. Approximately 3000 independent clones were screened for increased susceptibility to chloramphenicol (8 mg/L), yielding 2 independent clones with insertions in the gene tolC. […]

[2] = test system: clinical MDR K. pneumoniae isolates; test: MIC, clinical multi-drug resistant K. pneumoniae isolates; assay type: cell-based; conditions: Klebsiella pneumoniae
Experimental: as §1, §2, §3
(§4) To determine the […]
genotype of MDR strains from the ENABLE strain collection, de novo assembled contigs were […]

[3] = test system: clinical E. coli isolates (n=111); test: MIC distribution and MIC90, clinical E. coli isolates; assay type: cell-based; conditions: Escherichia coli; n=111, isolates from Spain, Poland, Denmark and Wales
Experimental: as §1, §2, §3, §4
(§5) genotype of MDR strains from the ENABLE strain collection, de novo assembled contigs were analyzed using ResFinder (12–14) […]
(§6) MIC distribution versus E. coli (n=111)
(§7) Clinical Isolates from Spain, Poland, Denmark and Wales
(§8) Figure S4. MIC distribution and MIC90 versus clinical E. coli isolates
(§9) MIC distribution versus K. pneumoniae (n=104)
(§10) Figure S5. MIC distribution and MIC90 versus clinical K. pneumoniae isolates […]

[4] = test system: clinical K. pneumoniae isolates (n=104); test: MIC distribution and MIC90, clinical K. pneumoniae isolates; assay type: cell-based; conditions: Klebsiella pneumoniae; n=104, isolates from Spain, Poland, Denmark and Wales
Experimental: as §1, §2, §3, §4, §5, §6, §7, §8, §9, §10

[5] = Safety testing in mice; assay type: in vivo; conditions: intravenous 50 mg/kg and subcutaneous 100 mg/kg
Experimental: PK and safety studies were done the Latvian Institute for Organic Synthesis (Riga, Latvia) and in vivo efficacy studies were done at Statens Serum Institut (Copenhagen, Denmark). Assays were done in accordance with the relevant permits at the respective sites (SI Appendix). For PK studies, plasma samples were taken from mice dosed subcutaneously and the samples were analyzed by UPLC/MS/MS. For in vivo efficacy studies, neutropenic mice were infected intraperitoneally with 10^6 bacteria and treated with subcutaneously with test compounds 1 h after infection. The mice were euthanized 4 h after treatment and serially diluted samples of blood and peritoneal fluid were plated onto blood agar plates. Complete experimental details available in SI Appendix.
Lantmännen) and water. […]
Safety testing in mice. […] Mice were extensively observed and toxicity signs were scored after 0-2, 5, […]
Plasma sample analysis by UPLC/MS/MS. Concentrations of EBL-3599 and EBL-3647 in mouse blood plasma were measured by liquid chromatography tandem mass spectrometry (LC/MS/MS) in positive electrospray ionization (ESI+) in multi reaction monitoring (MRM) mode. […]
A sample volume of 20 μL was transferred into a plastic tube and mixed with 300μL acetonitrile/methanol mixture (3:1, v/v) to precipitate proteins. […] Bioanalysis of samples from each mouse were measured in duplicate and the results averaged. […]

[6] = test system: PaLpxH; test: PaLpxH enzyme inhibition compared to EcLpxH; assay type: biochemical, P. aeruginosa; conditions: PaLpxH vs EcLpxH
[7] = ATCC7002, read-out: MIC P. mirabilis ATCC 7002
[8] = ATCC7002, read-out: MIC P. mirabilis EN1490
[9] = read-out: MIC K. pneumoniae EN0140
[10] = read-out: MIC K. pneumoniae EN0142
[11] = read-out: MIC K. pneumoniae EN0143
[12] = read-out: MIC K. pneumoniae EN0144
[13] = read-out: MIC K. pneumoniae EN0145
[14] = read-out: MIC K. pneumoniae EN0233
[15] = read-out: MIC K. pneumoniae EN0245
[16] = read-out: MIC K. pneumoniae EN0504

| Structure (SMILES) | MIC [1, 7] | MIC [1, 8] | MIC [2, 9] | MIC [2, 10] | MIC [2, 11] | MIC [2, 12] | MIC [2, 13] | MIC [2, 14] | MIC [2, 15] | MIC [2, 16] | MIC90 [3] | MIC90 [4] | Tolerability / adverse reactions in mice [5] | Factor of decrease in inhibitory effect on PaLpxH compared to EcLpxH [6] |
| --- | --- | --- | --- | --- | --- | --- | --- | --- | --- | --- | --- | --- | --- | --- |
| Cc1cc(C#N)nc(N2CCN(S(=O)(=O)c3ccc(NC(=O)c4cc(CNCCCN)ccc4N(C)S(C)(=O)=O)cc3)CC2)n1.Cl.Cl [EBL-3599] | > 64 µg/mL | 4 µg/mL | 1 µg/mL | 2 µg/mL | 2 µg/mL | 2 µg/mL | 4 µg/mL | 4 µg/mL | 8 µg/mL | 4 µg/mL | 4 µg/mL | 8 µg/mL | well tolerated | > 10 |
| Cc1cc(C#N)nc(N2CCN(S(=O)(=O)c3ccc(NC(=O)c4cc(CN5CC(CN)C5)ccc4N(C)S(C)(=O)=O)cc3)CC2)n1 [EBL-3647] | > 64 µg/mL | 16 µg/mL (≈ 24 µM) | 1 µg/mL (≈ 1.5 µM) | 2 µg/mL (≈ 2.99 µM) | 2 µg/mL (≈ 2.99 µM) | 2 µg/mL (≈ 2.99 µM) | 4 µg/mL (≈ 5.99 µM) | 4 µg/mL (≈ 5.99 µM) | 4 µg/mL (≈ 5.99 µM) | 4 µg/mL (≈ 5.99 µM) | 4 µg/mL (≈ 5.99 µM) | 8 µg/mL (≈ 12 µM) | well tolerated | > 10 |
